Reference: US20250230193A1, “CYCLIC COMPOUND HAVING SELECTIVE KRAS INHIBITORY EFFECT ON HRAS AND NRAS” (CHUGAI SEIYAKU KABUSHIKI KAISHA, priority 2022, published 2025)
Where a SMILES comes first, the peptide text is derived from it. Bridges are numbered along the chain shown (N, C = ends). [ ]: non-standard residue; d: D form. The star is where a group is joined. hPhe(3,5-F2-4-CF3) = N[C@@H](CCc1cc(F)c(C(F)(F)F)c(F)c1)C(=O)O; NPrPhe(4-CF3) = CCCN[C@@H](Cc1ccc(C(F)(F)F)cc1)C(=O)O; NMeGly(cPent) = CN[C@H](C(=O)O)C1CCCC1; NMeD = CN[C@@H](CC(=O)O)C(=O)O; NMeL = CN[C@@H](CC(C)C)C(=O)O; Morpholide = C1CN(*)CCO1; Ac5c = NC1(C(=O)O)CCCC1; Aze = O=C(O)[C@@H]1CCN1; Sar = CNCC(=O)O

Key:
[1] = target: GDP-bound NRAS wild-type protein (Homo sapiens, UniProt P01111); experiment: Binding to NRAS by surface plasmon resonance (SPR), Single Cycle Kinetics
[2] = target: GDP-bound HRAS wild-type protein (Homo sapiens, UniProt P01112); experiment: Binding to HRAS by surface plasmon resonance (SPR), Single Cycle Kinetics
[3] = SPR, GDP-bound wild-type proteins
[4] = KD ratio, GDP-bound NRAS wild-type vs GDP-bound KRAS wild-type, SPR
[5] = KD ratio, GDP-bound HRAS wild-type vs GDP-bound KRAS wild-type, SPR

Chain of GDP-bound HRAS wild-type protein (P01112 whole entry): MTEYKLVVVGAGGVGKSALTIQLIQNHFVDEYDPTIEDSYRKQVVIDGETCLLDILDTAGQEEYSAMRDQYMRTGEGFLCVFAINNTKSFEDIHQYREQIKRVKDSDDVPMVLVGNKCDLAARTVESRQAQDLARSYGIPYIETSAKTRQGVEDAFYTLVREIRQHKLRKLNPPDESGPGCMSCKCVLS
Chain of GDP-bound NRAS wild-type protein (P01111 whole entry): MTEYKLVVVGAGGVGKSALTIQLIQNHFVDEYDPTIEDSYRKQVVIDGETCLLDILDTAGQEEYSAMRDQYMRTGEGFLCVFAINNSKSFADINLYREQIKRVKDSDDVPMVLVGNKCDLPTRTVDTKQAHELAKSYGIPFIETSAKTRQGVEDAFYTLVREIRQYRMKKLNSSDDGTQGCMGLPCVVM

CC[C@H](C)[C@@H]1NC(=O)[C@@H]2CCC/C=C/c3ccc(cc3)C[C@@H](C(=O)N(C)CC(=O)N[C@@H](CCc3ccc(Cl)c(Cl)c3)C(=O)N3C[C@H](OC4CCCC4)C[C@H]3C(=O)NC3(CC(C)(C)C3)C(=O)N(C)[C@@H](C3CCCC3)C(=O)N(C)[C@H](C(=O)N3CCCC3)CC(=O)N2C)N2CC/C=C\C[C@@H](C2=O)N(C)C(=O)CN(C)C1=O [PP3054]
NRAS/KRAS (ratio of KD value with respect to GDP-bound NRAS wild-type protein to KD value with respect to KRAS) [1, 3]: A (a compound having 10 or more and less than 20 is denoted as A) | HRAS/KRAS (ratio of KD value with respect to GDP-bound HRAS wild-type protein to KD value with respect to KRAS) [2, 3]: A (a compound having 10 or more and less than 20 is denoted as A)

CCC[C@H]1C(=O)N[C@@H](C2CCCC2)C(=O)N(C)CC(=O)N(C)[C@H]2C/C=C\CCN(C2=O)[C@@H](Cc2ccc(C)cc2)C(=O)N(C)CC(=O)N[C@@H](CCc2ccc(C(F)(F)F)c(OC)c2)C(=O)N2C[C@H](OCC)C[C@H]2C(=O)NC2(CC(C)(C)C2)C(=O)N(C)[C@@H](CC(C)(C)C)C(=O)N(C)[C@H](C(=O)N(C)C)CC(=O)N1C [PP3005]
NRAS/KRAS (ratio of KD value with respect to GDP-bound NRAS wild-type protein to KD value with respect to KRAS) [1, 3]: A (a compound having 10 or more and less than 20 is denoted as A) | HRAS/KRAS (ratio of KD value with respect to GDP-bound HRAS wild-type protein to KD value with respect to KRAS) [2, 3]: B (a compound having 3 or more and less than 10 is denoted as B)

CCC[C@H]1C(=O)N[C@@H]([C@@H](C)CC)C(=O)N(C)CC(=O)N(C)[C@H]2C/C=C\CCN(C2=O)[C@@H](Cc2ccc(C)cc2)C(=O)N(C)CC(=O)N[C@@H](CCc2ccc(C(F)(F)F)c(Cl)c2)C(=O)N2C[C@H](OCC)C[C@H]2C(=O)NC2(CCC2)C(=O)N(C)[C@@H](C2CCCC2)C(=O)N(C)[C@H](C(=O)N(C)CC)CC(=O)N1C [PP1895]
NRAS/KRAS (ratio of KD value for NRAS to KD value for KRAS) [1, 4]: A (a compound having 10 or more and less than 20 is denoted as A) | HRAS/KRAS (ratio of KD value for HRAS to KD value for KRAS) [2, 5]: B (a compound having 3 or more and less than 10 is denoted as B)

CC[C@H](C)[C@@H]1NC(=O)[C@H](CC(C)C)N(C)C(=O)C[C@@H](C(=O)N(CC)CC)N(C)C(=O)[C@H](C2CCCC2)N(C)C(=O)C2(CCC2)NC(=O)[C@@H]2C[C@H](C)CN2C(=O)[C@H](CCc2ccc(C(F)(F)F)c(OC)c2)NC(=O)CN(C)C(=O)[C@H](Cc2ccc(C)cc2)N2CC/C=C\C[C@@H](C2=O)N(C)C(=O)CN(C)C1=O [PP1885]
NRAS/KRAS (ratio of KD value for NRAS to KD value for KRAS) [1, 4]: AA (a compound having 20 or more is denoted as AA) | HRAS/KRAS (ratio of KD value for HRAS to KD value for KRAS) [2, 5]: A (a compound having 10 or more and less than 20 is denoted as A)

CCCN1C(=O)CN(C)C(=O)[C@@H]2CCN2C(=O)[C@H]([C@@H](C)CC)NC(=O)[C@H](CC(C)C)N(C)C(=O)C[C@@H](C(=O)N2CCOCC2)N(C)C(=O)[C@H](C2CCCC2)N(C)C(=O)C2(CCCC2)NC(=O)[C@@H]2CCCN2C(=O)[C@H](CCc2cc(F)c(C(F)(F)F)c(F)c2)NC(=O)CN(C)C(=O)[C@@H]1Cc1ccc(C(F)(F)F)cc1 [PP0770] ([NMeL]I[Aze][Sar][NPrPhe(4-CF3)][Sar][hPhe(3,5-F2-4-CF3)]P[Ac5c][NMeGly(cPent)][NMeD]-Morpholide; lactam N-11)
NRAS/KRAS (ratio of KD value with respect to GDP-bound NRAS wild-type protein to KD value with respect to KRAS) ([1]; SPR): B (a compound having 3 or more and less than 10 is denoted as B) | HRAS/KRAS (ratio of KD value with respect to GDP-bound HRAS wild-type protein to KD value with respect to KRAS) ([2]; SPR): B (a compound having 3 or more and less than 10 is denoted as B)

CCC[C@H]1C(=O)N[C@@H]([C@@H](C)CC)C(=O)N(C)CC(=O)N(C)[C@H]2C/C=C\CCN(C2=O)[C@@H](Cc2ccc(C)cc2)C(=O)N(C)CC(=O)N[C@@H](CCc2ccc(C(F)(F)F)c(OC)c2)C(=O)N2C[C@H](OCC)C[C@H]2C(=O)N(C)C2(CCC2)C(=O)N(C)[C@@H](C2CCCC2)C(=O)N(C)[C@H](C(=O)N2CCCCC2)CC(=O)N1C [PP3104, (2S,8S,12R,14S,20S,23S,27S,30S,36S,38Z)-20-cyclopentyl-12-ethoxy-8-[2-[3-methoxy-4-(trifluoromethyl)phenyl]ethyl]-4,16,19,22,26,32,35-heptamethyl-30-[(1S)-1-methylpropyl]-23-(piperidine-1-carbonyl)-27-propyl-2-(p-tolylmethyl)spiro[1,4,7,10,16,19,22,26,29,32,35-undecazatricyclo[34.5.1.0^10,14]dotetracont-38-ene-17,1′-cyclobutane]-3,6,9,15,18,21,25,28,31,34,42-undecone]
NRAS/KRAS (ratio of KD value with respect to GDP-bound NRAS wild-type protein to KD value with respect to KRAS) [1, 3]: A (a compound having 10 or more and less than 20 is denoted as A) | HRAS/KRAS (ratio of KD value with respect to GDP-bound HRAS wild-type protein to KD value with respect to KRAS) [2, 3]: A (a compound having 10 or more and less than 20 is denoted as A)

CCO[C@@H]1C[C@H]2C(=O)NC3(CCC3)C(=O)N(C)[C@@H](C3CCCC3)C(=O)N(C)[C@H](C(=O)N(C)C)CC(=O)N(C)[C@@H](CC)C(=O)N[C@@H]([C@@H](C)CC)C(=O)N(C)CC(=O)N(C)[C@H]3CCCCCN(C3=O)[C@@H](Cc3ccc(F)c(F)c3)C(=O)N(C)CC(=O)N[C@@H](CCc3cc(F)c(C(F)(F)F)c(F)c3)C(=O)N2C1 [PP0907]
NRAS/KRAS (ratio of KD value with respect to NRAS to KD value with respect to KRAS) [1, 4]: B (a compound having 3 or more and less than 10 is denoted as B) | HRAS/KRAS (ratio of KD value with respect to HRAS to KD value with respect to KRAS) [2, 5]: B (a compound having 3 or more and less than 10 is denoted as B)

CCO[C@@H]1C[C@H]2C(=O)NC3(CC(C)(C)C3)C(=O)N(C)[C@@H](C3CCCC3)C(=O)N(C)[C@H](C(=O)N(C)CC)CC(=O)N(C)[C@@H](CC)C(=O)N[C@@H]([C@@H](C)CC)C(=O)N(C)CC(=O)N(C)[C@H]3C/C=C\CCN(C3=O)[C@@H](Cc3ccc(C)cc3)C(=O)N(C)CC(=O)N[C@@H](CCc3ccc(C(F)(F)F)c(Cl)c3)C(=O)N2C1 [PP1880]
NRAS/KRAS (ratio of KD value for NRAS to KD value for KRAS) [1, 4]: A (a compound having 10 or more and less than 20 is denoted as A) | HRAS/KRAS (ratio of KD value for HRAS to KD value for KRAS) [2, 5]: B (a compound having 3 or more and less than 10 is denoted as B)

CCOC[C@H]1C(=O)N[C@@H]([C@@H](C)CC)C(=O)N(C)CC(=O)N(C)[C@H]2C/C=C\CCN(C2=O)[C@@H](Cc2ccc(C(F)(F)F)cc2)C(=O)N(C)CC(=O)N[C@@H](CCc2cc(F)c(C(F)(F)F)c(F)c2)C(=O)N2C[C@H](OCC)C[C@H]2C(=O)NC2(CC(C)(C)C2)C(=O)N(C)[C@@H](CC(C)(C)C)C(=O)N(C)[C@H](C(=O)N(C)C)CC(=O)N1C [PP2732]
NRAS/KRAS (ratio of KD value with respect to GDP-bound NRAS wild-type protein to KD value with respect to KRAS) ([1]; class symbols): A (a compound having 10 or more and less than 20 is denoted as A) | HRAS/KRAS (ratio of KD value with respect to GDP-bound HRAS wild-type protein to KD value with respect to KRAS) ([2]; class symbols): A (a compound having 10 or more and less than 20 is denoted as A)

CC[C@H](C)[C@@H]1NC(=O)[C@H](C)N(C)C(=O)C[C@@H](C(=O)N2CCOCC2)N(C)C(=O)[C@H](C2CCCC2)N(C)C(=O)C2(CCCC2)NC(=O)[C@@H]2CCCN2C(=O)[C@H](CCc2cc(F)c(C(F)(F)F)c(F)c2)NC(=O)CN(C)C(=O)[C@H](Cc2ccc(C(F)(F)F)cc2)N2CCCC[C@@H](C2=O)N(C)C(=O)CN(C)C1=O [PP0549]
NRAS/KRAS (ratio of KD value with respect to GDP-bound NRAS wild-type protein to KD value with respect to KRAS) ([1]; SPR): C (A compound having a KD ratio of 0.1 or more and less than 3 is denoted as C) | HRAS/KRAS (ratio of KD value with respect to GDP-bound HRAS wild-type protein to KD value with respect to KRAS) ([2]; SPR): B (a compound having 3 or more and less than 10 is denoted as B)

CCO[C@@H]1C[C@H]2C(=O)NC3(CCC3)C(=O)N(C)[C@@H](C3CCCC3)C(=O)N(C)[C@H](C(=O)N(C)CCOC)CC(=O)N(C)[C@@H](C)C(=O)N[C@@H]([C@@H](C)CC)C(=O)N(C)CC(=O)N(C)[C@H]3C/C=C\CCN(C3=O)[C@@H](Cc3ccc(C(F)(F)F)cc3)C(=O)N(C)CC(=O)N[C@@H](CCc3cc(F)c(C(F)(F)F)c(F)c3)C(=O)N2C1 [PP1319]
NRAS/KRAS (ratio of KD value for GDP-bound NRAS wild-type protein to KD value for KRAS) ([1]; SPR, KD ratio class): A (a compound having 10 or more and less than 20 is denoted as A) | HRAS/KRAS (ratio of KD value for GDP-bound HRAS wild-type protein to KD value for KRAS) ([2]; SPR, KD ratio class): B (a compound having 3 or more and less than 10 is denoted as B)

CCC[C@H]1C(=O)N[C@@H](CC(C)C)C(=O)N(CCOC)CC(=O)N(C)[C@H]2C/C=C\CCN(C2=O)[C@@H](Cc2ccc(C)cc2)C(=O)N(C)CC(=O)N[C@@H](CCc2cc(F)c(C(F)(F)F)c(F)c2)C(=O)N2C[C@H](OCC)C[C@H]2C(=O)NC2(CCC2)C(=O)N(C)[C@@H](C2CCCC2)C(=O)N(C)[C@H](C(=O)N(C)C)CC(=O)N1C [PP2541]
NRAS/KRAS (ratio of KD value with respect to GDP-bound NRAS wild-type protein to KD value with respect to KRAS) ([1]; class symbols): A (a compound having 10 or more and less than 20 is denoted as A) | HRAS/KRAS (ratio of KD value with respect to GDP-bound HRAS wild-type protein to KD value with respect to KRAS) ([2]; class symbols): B (a compound having 3 or more and less than 10 is denoted as B)

CCO[C@@H]1C[C@H]2C(=O)NC3(CCC3)C(=O)N(C)[C@@H](C3CCCC3)C(=O)N(C)[C@H](C(=O)N(C)CC)CC(=O)N(C)[C@@H](C3CC3)C(=O)N[C@@H]([C@@H](C)CC)C(=O)N(C)CC(=O)N(C)[C@H]3C/C=C\CCN(C3=O)[C@@H](Cc3ccc(C(F)(F)F)cc3)C(=O)N(C)CC(=O)N[C@@H](CCc3ccc(C(F)(F)F)c(OC)c3)C(=O)N2C1 [PP2021]
NRAS/KRAS (ratio of KD value for NRAS to KD value for KRAS) [1, 4]: A (a compound having 10 or more and less than 20 is denoted as A) | HRAS/KRAS (ratio of KD value for HRAS to KD value for KRAS) [2, 5]: B (a compound having 3 or more and less than 10 is denoted as B)

CCO[C@@H]1C[C@H]2C(=O)NC3(CCC3)C(=O)N(C)[C@@H](C3CCCC3)C(=O)N(CCC3CCCC3)[C@H](C(=O)N3CCOCC3)CC(=O)N(C)[C@@H](CC(C)C)C(=O)N[C@@H]([C@@H](C)CC)C(=O)N(C)CC(=O)N(C)[C@H]3CCCCN(C3=O)[C@@H](Cc3ccc(C(F)(F)F)cc3)C(=O)N(C)CC(=O)N[C@@H](CCc3cc(F)c(C(F)(F)F)c(F)c3)C(=O)N2C1 [PP0651]
NRAS/KRAS (ratio of KD value with respect to GDP-bound NRAS wild-type protein to KD value with respect to KRAS) ([1]; SPR): B (a compound having 3 or more and less than 10 is denoted as B) | HRAS/KRAS (ratio of KD value with respect to GDP-bound HRAS wild-type protein to KD value with respect to KRAS) ([2]; SPR): B (a compound having 3 or more and less than 10 is denoted as B)
